Assays:
[1] = test system: large crabgrass; assay: Test A pre-/postemergence herbicide test; type: in vivo, Digitaria sanguinalis
Method in brief: (§1)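 Greenhouse injury scoring (0–100, complete control = 100) at approximately ten days follows simultaneous pre- and postemergence application. Soil received a directed spray after seeding; seedlings of 2–10 cm at the one- to two-leaf stage were sprayed to runoff.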

[2] = test system: redroot pigweed; assay: Test A pre-/postemergence herbicide test; type: in vivo, Amaranthus retroflexus
Method in brief: as §1

[3] = test system: pigweed; assay: Test C pre-/postemergence herbicide test; type: in vivo, Amaranthus retroflexus; conditions: for Pigweed plant response rating: 500 g ai/ha
Method in brief: (§2)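 Pre/post spray; non-phytotoxic solvent + surfactant. Post-timing 1–4 leaves, 2–18 cm. Read-out: visual % control vs untreated, day 12–14, greenhouse.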

[4] = test system: goosegrass; assay: Test C pre-/postemergence herbicide test; type: in vivo, Eleusine indica; conditions: for Goosegrass plant response rating: 500 g ai/ha
Method in brief: as §2

[5] = test system: lambsquarters; assay: Test C pre-/postemergence herbicide test; type: in vivo, Chenopodium album; conditions: for Lambsquarters plant response rating: 500 g ai/ha
Method in brief: as §2

[6] = test system: giant foxtail; assay: Test C pre-/postemergence herbicide test; type: in vivo, Setaria faberi; conditions: for Foxtail, Giant plant response rating: 500 g ai/ha
Method in brief: as §2

[7] = Postemergence, 500 g ai/ha, 0 to 100 scale, 0 no effect, 100 complete control
[8] = Postemergence, 2000 g ai/ha, 0 to 100 scale, 0 no effect, 100 complete control
[9] = Preemergence, 500 g ai/ha, visual rating, 0 to 100 scale (0 no effect, 100 complete control)
[10] = Preemergence, 2000 g ai/ha, 0 to 100 scale, 0 no effect, 100 complete control
[11] = 31 g ai/ha, preemergence, scale 0 to 100
[12] = postemergence, 125 g ai/ha, scale 0 to 100
[13] = postemergence, 31 g ai/ha, scale 0 to 100
[14] = postemergence, 62 g ai/ha, scale 0 to 100
[15] = 125 g ai/ha, scale 0-100, preemergence
[16] = Postemergence, 125 g ai/ha, scale 0 to 100, 0 no effect, 100 complete control
[17] = 125 g ai/ha, scale 0 (no effect) to 100 (complete control), visual, 12 to 14 days, preemergence
[18] = 250 g ai/ha, scale 0 to 100 (0 no effect, 100 complete control), visual, 12 to 14 days, preemergence
[19] = Postemergence, 250 g ai/ha, scale 0 to 100, 0 no effect, 100 complete control
[20] = Preemergence, scale 0 to 100, 0 no effect, 100 complete control
[21] = Preemergence, 2000 g ai/ha, visual rating, 0 to 100 scale (0 no effect, 100 complete control)

C=Cn1nc(C(C)(C)C)cc1C(=O)Nc1cccc(C(=O)NCC)c1 [Compound 33]
Plant response rating, Crabgrass, Large [1, 7]: 65
Plant response rating, Crabgrass, Large [1, 8]: 85
Crabgrass, Large plant response rating [1, 9]: 90
Crabgrass, Large plant response rating [1, 10]: 95
Plant response rating, Pigweed [2, 7]: 85
Plant response rating, Pigweed [2, 8]: 85
Pigweed plant response rating [2, 9]: 100
Pigweed plant response rating [2, 10]: 100
Plant response rating, Pigweed [3, 11]: 30
Plant response rating (0 = no effect, 100 = complete control), Pigweed ([3]; 62 g ai/ha, preemergence): 50
Plant response rating, Pigweed [3, 12]: 100
Plant response rating, Pigweed [3, 13]: 90
Plant response rating, Pigweed [3, 14]: 100
Plant response rating, Goosegrass [4, 11]: 20
Plant response rating (0 = no effect, 100 = complete control), Goosegrass ([4]; 62 g ai/ha, preemergence): 60
Plant response rating, Goosegrass [4, 15]: 90
Plant response rating, Goosegrass [4, 16]: 40
Plant response rating, Goosegrass [4, 13]: 40
Plant response rating, Goosegrass [4, 14]: 40
Plant response rating, Lambsquarters [5, 11]: 80
Plant response rating (0 = no effect, 100 = complete control), Lambsquarters ([5]; 62 g ai/ha, preemergence): 100
Plant response rating, Lambsquarters [5, 15]: 100
Plant response rating, Lambsquarters [5, 12]: 90
Plant response rating, Lambsquarters [5, 13]: 90
Plant response rating, Lambsquarters [5, 14]: 90
Plant response rating, Foxtail, Giant [6, 11]: 10
Plant response rating (0 = no effect, 100 = complete control), Foxtail, Giant ([6]; 62 g ai/ha, preemergence): 20
Plant response rating, Foxtail, Giant [6, 15]: 60
Plant response rating, Foxtail, Giant [6, 16]: 30
Plant response rating, Foxtail, Giant [6, 13]: 30
Plant response rating, Foxtail, Giant [6, 14]: 30

C=CCNC(=O)c1cccc(NC(=O)c2cc(C(C)(C)C)nn2CC)c1 [Compound 46]
Plant response rating, Crabgrass, Large [1, 7]: 75
Plant response rating, Crabgrass, Large [1, 8]: 90
Crabgrass, Large plant response rating [1, 9]: 65
Crabgrass, Large plant response rating [1, 10]: 90
Plant response rating, Pigweed [2, 7]: 100
Plant response rating, Pigweed [2, 8]: 100
Pigweed plant response rating [2, 9]: 100
Pigweed plant response rating [2, 10]: 100
Plant response rating (0 = no effect, 100 = complete control), Pigweed ([3]; 62 g ai/ha, preemergence): 20
Plant response rating, Pigweed [3, 17]: 100
Plant response rating, Pigweed [3, 18]: 100
Pigweed plant response rating ([3]; Postemergence, scale 0 to 100): 100
Plant response rating, Pigweed [3, 19]: 100
Pigweed plant response rating [3, 20]: 100
Plant response rating, Pigweed [3, 14]: 100
Plant response rating (0 = no effect, 100 = complete control), Goosegrass ([4]; 62 g ai/ha, preemergence): 60
Plant response rating, Goosegrass [4, 17]: 90
Plant response rating, Goosegrass [4, 18]: 100
Goosegrass plant response rating ([4]; Postemergence, scale 0 to 100): 80
Plant response rating, Goosegrass [4, 16]: 50
Plant response rating, Goosegrass [4, 19]: 50
Goosegrass plant response rating [4, 20]: 100
Plant response rating, Goosegrass [4, 14]: 40
Plant response rating (0 = no effect, 100 = complete control), Lambsquarters ([5]; 62 g ai/ha, preemergence): 100
Plant response rating, Lambsquarters [5, 17]: 100
Plant response rating, Lambsquarters [5, 18]: 100
Lambsquarters plant response rating ([5]; Postemergence, scale 0 to 100): 100
Plant response rating, Lambsquarters [5, 19]: 100
Lambsquarters plant response rating [5, 20]: 100
Plant response rating, Lambsquarters [5, 14]: 80
Plant response rating (0 = no effect, 100 = complete control), Foxtail, Giant ([6]; 62 g ai/ha, preemergence): 10
Plant response rating, Foxtail, Giant [6, 17]: 60
Plant response rating, Foxtail, Giant [6, 18]: 100
Foxtail, Giant plant response rating ([6]; Postemergence, scale 0 to 100): 70
Plant response rating, Foxtail, Giant [6, 16]: 60
Plant response rating, Foxtail, Giant [6, 19]: 60
Foxtail, Giant plant response rating [6, 20]: 100
Plant response rating, Foxtail, Giant [6, 14]: 40

C=Cn1nc(C(C)(C)C)cc1C(=O)Nc1cccc(C(C)=NO)c1 [Compound 114]
Crabgrass, Large plant response rating [1, 7]: 40
Plant response rating, Crabgrass, Large [1, 8]: 60
Crabgrass, Large plant response rating [1, 9]: 40
Crabgrass, Large plant response rating [1, 21]: 85
Pigweed plant response rating [2, 7]: 85
Plant response rating, Pigweed [2, 8]: 100
Pigweed plant response rating [2, 9]: 85
Pigweed plant response rating [2, 21]: 90
Plant response rating, Pigweed [3, 11]: 0
Plant response rating (0 = no effect, 100 = complete control), Pigweed ([3]; 62 g ai/ha, preemergence): 100
Plant response rating, Pigweed [3, 17]: 100
Plant response rating, Pigweed [3, 19]: 100
Plant response rating, Pigweed [3, 12]: 100
Plant response rating, Pigweed [3, 14]: 100
Plant response rating, Goosegrass [4, 11]: 20
Plant response rating (0 = no effect, 100 = complete control), Goosegrass ([4]; 62 g ai/ha, preemergence): 40
Plant response rating, Goosegrass [4, 17]: 80
Plant response rating, Goosegrass [4, 19]: 70
Plant response rating, Goosegrass [4, 12]: 60
Plant response rating, Goosegrass [4, 14]: 60
Plant response rating, Lambsquarters [5, 11]: 40
Plant response rating (0 = no effect, 100 = complete control), Lambsquarters ([5]; 62 g ai/ha, preemergence): 80
Plant response rating, Lambsquarters [5, 17]: 100
Plant response rating, Lambsquarters [5, 19]: 100
Plant response rating, Lambsquarters [5, 12]: 90
Plant response rating, Lambsquarters [5, 14]: 90
Plant response rating, Foxtail, Giant [6, 11]: 20
Plant response rating (0 = no effect, 100 = complete control), Foxtail, Giant ([6]; 62 g ai/ha, preemergence): 20
Plant response rating, Foxtail, Giant [6, 17]: 30
Plant response rating, Foxtail, Giant [6, 18]: 40
Plant response rating, Foxtail, Giant [6, 19]: 10
Plant response rating, Foxtail, Giant [6, 14]: 10
